Source: patent US10660877B2 (BRISTOL-MYERS SQUIBB COMPANY, priority 2016, dated 2020)

Legend:
human TLR8 = human TLR8 (Homo sapiens (Human), UniProt Q9NR97); experiment: TLR8 inhibition reporter assay (HEK-Blue cells, SEAP reporter, R848 stimulation); settings: read-out: TLR8 IC50, HEK-Blue cells overexpressing human TLR8, R848 15.9 μM;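 further: compounds tested from 0.05 nM to 50 µM, 22 h at 37 °C, SEAP measured with HEK-Blue Detection, inhibition relative to agonist plus DMSO versus a known inhibitor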
Chain of human TLR8 (Q9NR97 27-1041): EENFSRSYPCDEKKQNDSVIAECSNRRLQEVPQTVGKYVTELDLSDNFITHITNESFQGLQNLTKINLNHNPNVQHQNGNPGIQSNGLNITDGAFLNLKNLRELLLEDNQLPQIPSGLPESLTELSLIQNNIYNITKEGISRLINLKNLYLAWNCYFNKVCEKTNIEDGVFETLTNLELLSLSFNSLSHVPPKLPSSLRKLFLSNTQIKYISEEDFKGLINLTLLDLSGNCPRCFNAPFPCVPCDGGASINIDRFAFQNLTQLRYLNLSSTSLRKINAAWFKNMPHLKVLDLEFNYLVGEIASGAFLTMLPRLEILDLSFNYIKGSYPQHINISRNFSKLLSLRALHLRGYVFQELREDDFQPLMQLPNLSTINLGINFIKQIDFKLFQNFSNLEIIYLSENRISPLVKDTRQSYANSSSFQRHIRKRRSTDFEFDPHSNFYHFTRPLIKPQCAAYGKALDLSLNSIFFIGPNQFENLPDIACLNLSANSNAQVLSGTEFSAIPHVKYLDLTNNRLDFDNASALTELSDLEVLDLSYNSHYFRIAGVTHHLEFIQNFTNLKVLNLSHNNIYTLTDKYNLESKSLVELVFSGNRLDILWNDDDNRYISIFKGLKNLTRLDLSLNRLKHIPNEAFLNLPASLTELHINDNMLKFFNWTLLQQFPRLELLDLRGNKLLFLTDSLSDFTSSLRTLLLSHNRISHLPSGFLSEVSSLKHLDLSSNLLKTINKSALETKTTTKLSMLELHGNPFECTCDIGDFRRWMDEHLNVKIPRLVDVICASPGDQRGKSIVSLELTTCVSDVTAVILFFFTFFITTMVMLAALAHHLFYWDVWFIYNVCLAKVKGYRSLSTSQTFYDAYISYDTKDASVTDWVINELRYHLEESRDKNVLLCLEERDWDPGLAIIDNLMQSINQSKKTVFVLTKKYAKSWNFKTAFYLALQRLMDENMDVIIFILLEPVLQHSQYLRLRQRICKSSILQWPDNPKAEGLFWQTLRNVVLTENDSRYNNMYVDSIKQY
Procedure: TLR7/8/9 Inhibition Reporter Assays
Briefly, cells are seeded into Greiner 384 well plates (15000 cells per well for TLR7, 20,000 for TLR8 and 25,000 for TLR9) and then treated with test compounds in DMSO to yield a final dose response concentration range of 0.05 nM-50 μM. […] After a 22 hour incubation at 37° C., 5% CO2, SEAP levels are determined with the addition of HEK-Blue™ Detection reagent (Invivogen), a cell culture medium that allows for detection of SEAP, according to manufacturer's specifications. The percent inhibition is determined as the % reduction in the HEK-Blue signal present in wells treated with agonist plus DMSO alone compared to wells treated with a known inhibitor.

human TLR9 = human TLR9 (Homo sapiens (Human), UniProt Q9NR96); experiment: TLR9 inhibition reporter assay (HEK-Blue cells, SEAP reporter, ODN2006 stimulation); settings: read-out: TLR9 IC50, HEK-Blue cells overexpressing human TLR9, ODN2006 5 nM;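 further: compounds tested over 0.05 nM to 50 µM, 22 h incubation, inhibition taken as SEAP signal drop from agonist plus DMSO wells toward a known inhibitor control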
Chain of human TLR9 (Q9NR96 26-1032): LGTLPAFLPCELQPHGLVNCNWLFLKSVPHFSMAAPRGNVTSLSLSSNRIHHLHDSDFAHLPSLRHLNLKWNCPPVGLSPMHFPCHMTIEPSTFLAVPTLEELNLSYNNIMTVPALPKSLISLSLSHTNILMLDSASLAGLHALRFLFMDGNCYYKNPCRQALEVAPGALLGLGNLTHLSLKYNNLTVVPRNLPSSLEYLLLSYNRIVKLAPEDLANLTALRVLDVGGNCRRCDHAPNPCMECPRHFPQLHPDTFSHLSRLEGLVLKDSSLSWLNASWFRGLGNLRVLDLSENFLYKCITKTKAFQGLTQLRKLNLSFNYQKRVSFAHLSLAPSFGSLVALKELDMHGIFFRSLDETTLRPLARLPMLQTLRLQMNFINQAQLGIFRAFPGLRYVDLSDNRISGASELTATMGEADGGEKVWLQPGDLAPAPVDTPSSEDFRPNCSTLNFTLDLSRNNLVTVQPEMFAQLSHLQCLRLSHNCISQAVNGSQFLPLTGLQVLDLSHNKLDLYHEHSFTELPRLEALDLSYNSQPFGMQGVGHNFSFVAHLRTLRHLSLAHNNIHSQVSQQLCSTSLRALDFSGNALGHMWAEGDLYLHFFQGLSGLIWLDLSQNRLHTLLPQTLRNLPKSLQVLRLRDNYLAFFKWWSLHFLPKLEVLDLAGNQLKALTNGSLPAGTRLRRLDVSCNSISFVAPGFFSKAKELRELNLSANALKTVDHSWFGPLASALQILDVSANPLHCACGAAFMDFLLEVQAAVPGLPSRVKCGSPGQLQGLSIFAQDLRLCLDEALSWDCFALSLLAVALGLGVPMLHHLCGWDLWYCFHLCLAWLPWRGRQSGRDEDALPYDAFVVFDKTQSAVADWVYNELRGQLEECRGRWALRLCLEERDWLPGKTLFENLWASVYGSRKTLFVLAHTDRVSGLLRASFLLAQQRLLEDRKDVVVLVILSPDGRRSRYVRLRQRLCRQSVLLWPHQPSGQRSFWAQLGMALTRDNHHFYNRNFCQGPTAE

human TLR7 = human TLR7 (Homo sapiens (Human), UniProt Q9NYK1); experiment: TLR7 inhibition reporter assay (HEK-Blue cells, SEAP reporter, gardiquimod stimulation); type: cell-based; settings: HEK-Blue cells overexpressing human TLR7, gardiquimod 7.5 μM
Chain of human TLR7 (Q9NYK1 27-1049): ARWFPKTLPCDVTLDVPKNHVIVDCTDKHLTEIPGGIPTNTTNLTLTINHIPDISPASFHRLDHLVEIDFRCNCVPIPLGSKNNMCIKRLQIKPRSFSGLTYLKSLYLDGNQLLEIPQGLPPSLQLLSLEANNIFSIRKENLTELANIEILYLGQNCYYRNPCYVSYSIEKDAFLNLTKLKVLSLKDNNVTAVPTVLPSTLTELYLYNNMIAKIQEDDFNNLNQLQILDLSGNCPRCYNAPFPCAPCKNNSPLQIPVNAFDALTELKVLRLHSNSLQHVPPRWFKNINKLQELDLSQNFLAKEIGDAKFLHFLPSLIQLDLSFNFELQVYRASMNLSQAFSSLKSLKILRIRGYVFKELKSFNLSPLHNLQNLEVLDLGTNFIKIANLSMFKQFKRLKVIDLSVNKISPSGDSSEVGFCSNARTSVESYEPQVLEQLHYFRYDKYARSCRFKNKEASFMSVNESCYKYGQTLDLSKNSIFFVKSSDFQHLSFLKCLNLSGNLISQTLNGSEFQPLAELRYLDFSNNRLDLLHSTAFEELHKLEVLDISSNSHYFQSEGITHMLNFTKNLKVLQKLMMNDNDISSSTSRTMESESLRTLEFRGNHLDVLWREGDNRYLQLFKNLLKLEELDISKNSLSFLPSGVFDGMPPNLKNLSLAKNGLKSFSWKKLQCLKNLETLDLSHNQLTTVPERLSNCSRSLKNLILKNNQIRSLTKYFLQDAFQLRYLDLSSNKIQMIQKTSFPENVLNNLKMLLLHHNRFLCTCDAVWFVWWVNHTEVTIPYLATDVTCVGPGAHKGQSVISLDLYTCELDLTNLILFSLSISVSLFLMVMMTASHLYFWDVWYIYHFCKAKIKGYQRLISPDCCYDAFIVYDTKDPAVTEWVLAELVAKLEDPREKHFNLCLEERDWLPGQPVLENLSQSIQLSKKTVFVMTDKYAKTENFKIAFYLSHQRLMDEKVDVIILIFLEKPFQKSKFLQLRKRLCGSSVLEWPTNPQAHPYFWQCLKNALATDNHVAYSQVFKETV

Structure (SMILES)	IC50 (human TLR8)	IC50 (human TLR9)	IC50 (human TLR7)
CNCCN1CCC(c2ccc3[nH]c(-c4ccnc(C(=O)OC)c4)c(C)c3c2)CC1 [Example 752, methyl 4-(3-methyl-5-(1-(2-(methylamino)ethyl)piperidin-4-yl)-1H-indol-2-yl) picolinate]	114 nM	199 nM	231 nM
CNCCN1CCC(c2ccc3[nH]c(-c4ccncc4OC)c(C)c3c2)CC1 [Example 754, 2-(4-(2-(3-methoxypyridin-4-yl)-3-methyl-1H-indol-5-yl)piperidin-1-yl)-N-methylethan-1-amine]	27.5 nM	325 nM	5860 nM
CNCCN1CCC(c2ccc3[nH]c(-c4ccnc(C#N)c4)c(C)c3c2)CC1 [Example 755, 4-(3-methyl-5-(1-(2-(methylamino)ethyl)piperidin-4-yl)-1H-indol-2-yl)picolinonitrile]	86.6 nM	599 nM	2650 nM
CNCCN1CCC(c2ccc3[nH]c(-c4cc(OC)ncc4F)c(C)c3c2)CC1 [Example 756, 2-(4-(2-(5-fluoro-2-methoxypyridin-4-yl)-3-methyl-1H-indol-5-yl)piperidin-1-yl)-N-methylethan-1-amine]	185 nM	3300 nM	3120 nM
CNCCN1CCC(c2ccc3[nH]c(-c4cc(Cl)ncc4OC)c(C)c3c2)CC1 [Example 757, 2-(4-(2-(2-chloro-5-methoxypyridin-4-yl)-3-methyl-1H-indol-5-yl)piperidin-1-yl)-N-methylethan-1-amine]	93.2 nM	1300 nM	6670 nM
CCc1c(-c2ccnc(Cl)c2)[nH]c2ccc(C3CCN(C4CCN(CC(C)C)CC4)CC3)cc12 [Example 758, 2-(2-chloropyridin-4-yl)-3-ethyl-5-(1′-isobutyl-[1,4′-bipiperidin]-4-yl)-1H-indole]	136 nM	751 nM	967 nM
CCc1c(-c2ccnc(F)c2)[nH]c2ccc(C3CCN(C4CCN(CC(C)C)CC4)CC3)cc12 [Example 759, 3-ethyl-2-(2-fluoropyridin-4-yl)-5-(1′-isobutyl-[1,4′-bipiperidin]-4-yl)-1H-indole]	257 nM	655 nM	1520 nM
CCc1c(-c2cc(Cl)ncc2F)[nH]c2ccc(C3CCN(C4CCN(CC(C)C)CC4)CC3)cc12 [Example 760, 2-(2-chloro-5-fluoropyridin-4-yl)-3-ethyl-5-(1′-isobutyl-[1,4′-bipiperidin]-4-yl)-1H-indole]	107 nM	2390 nM	537 nM
CCc1c(-c2cc(F)nc(F)c2)[nH]c2ccc(C3CCN(C4CCN(CC(C)C)CC4)CC3)cc12 [Example 761, 2-(2,6-difluoropyridin-4-yl)-3-ethyl-5-(1′-isobutyl-[1,4′-bipiperidin]-4-yl)-1H-indole]	375 nM	800 nM	4260 nM
CCc1c(-c2ccnc(C(=O)OC)c2)[nH]c2ccc(C3CCN(C4CCN(CC(C)C)CC4)CC3)cc12 [Example 762, methyl 4-(3-ethyl-5-(1′-isobutyl-[1,4′-bipiperidin]-4-yl)-1H-indol-2-yl)picolinate]	14.3 nM	223 nM	708 nM
CCc1c(-c2ccnc(O)c2)[nH]c2ccc(C3CCN(C4CCN(CC(C)C)CC4)CC3)cc12 [Example 765, 4-(3-ethyl-5-(1′-isobutyl-[1,4′-bipiperidin]-4-yl)-1H-indol-2-yl)pyridin-2-ol]	341 nM	181 nM	11000 nM
CCc1c(-c2ccnc(N(C)C)c2)[nH]c2ccc(C3CCN(C4CCN(CC(C)C)CC4)CC3)cc12 [Example 767, 4-(3-ethyl-5-(1′-isobutyl-[1,4′-bipiperidin]-4-yl)-1H-indol-2-yl)-N,N-dimethylpyridin-2-amine]	1230 nM	98 nM	3750 nM
CCc1c(-c2ccnc(N)c2)[nH]c2ccc(C3CCN(C4CCN(CC(C)C)CC4)CC3)cc12 [Example 773, 4-(3-ethyl-5-(1′-isobutyl-[1,4′-bipiperidin]-4-yl)-1H-indol-2-yl)pyridin-2-amine]	114 nM	45 nM	613 nM
CCc1c(-c2ccnc(OC)c2)[nH]c2ccc(C3CCN(CCNC)CC3)cc12 [Example 778, 2-(4-(3-ethyl-2-(2-methoxypyridin-4-yl)-1H-indol-5-yl)piperidin-1-yl)-N-methylethan-1-amine]	100 nM	1940 nM	330 nM
CCc1c(-c2ccncc2)[nH]c2ccc(C3CCN(C4CCN(CC(C)C)CC4)CC3)cc12 [Example 779, 3-ethyl-5-(1′-isobutyl-[1,4′-bipiperidin]-4-yl)-2-(pyridin-4-yl)-1H-indole]	86.6 nM	159 nM	2110 nM

Now from value to compound:

IC50 (human TLR8)	IC50 (human TLR9)	IC50 (human TLR7)	Structure (SMILES)
514 nM	1900 nM	4950 nM	CCc1c(-c2cc(Cl)ncc2OC)[nH]c2ccc(C3CCN(C4CCN(CC(C)C)CC4)CC3)cc12 [Example 763, 2-(2-chloro-5-methoxypyridin-4-yl)-3-ethyl-5-(1′-isobutyl-[1,4′-bipiperidin]-4-yl)-1H-indole]
262 nM	603 nM	174 nM	Cc1cc(-c2[nH]c3ccc(C4CCN(C(=O)[C@H]5CC[C@H](N)CC5)CC4)cc3c2C(C)C)ccn1 [Example 764, ((1r,4r)-4-aminocyclohexyl) (4-(3-isopropyl-2-(2-methylpyridin-4-yl)-1H-indol-5-yl)piperidin-1-yl)methanone]
245 nM	83 nM	3980 nM	CCc1c(-c2ccnc(NC(C)=O)c2)[nH]c2ccc(C3CCN(C4CCN(CC(C)C)CC4)CC3)cc12 [Example 766, N-(4-(3-ethyl-5-(1′-isobutyl-[1,4′-bipiperidin]-4-yl)-1H-indol-2-yl)pyridin-2-yl)acetamide]
1190 nM	1280 nM	7220 nM	CCOc1cc(-c2[nH]c3ccc(C4CCN(C5CCN(CC(C)C)CC5)CC4)cc3c2CC)ccn1 [Example 768, 2-(2-ethoxypyridin-4-yl)-3-ethyl-5-(1′-isobutyl-[1,4′-bipiperidin]-4-yl)-1H-indole]
1050 nM	1500 nM	5380 nM	CCc1c(-c2ccnc(OC(C)C)c2)[nH]c2ccc(C3CCN(C4CCN(CC(C)C)CC4)CC3)cc12 [Example 769, 3-ethyl-5-(1′-isobutyl-[1,4′-bipiperidin]-4-yl)-2-(2-isopropoxypyridin-4-yl)-1H-indole]
> 50000 nM	310 nM	6730 nM	CCc1c(-c2ccnc(OCCN(C)C)c2)[nH]c2ccc(C3CCN(C4CCN(CC(C)C)CC4)CC3)cc12 [Example 770, 2-((4-(3-ethyl-5-(1′-isobutyl-[1,4′-bipiperidin]-4-yl)-1H-indol-2-yl)pyridin-2-yl)oxy)-N,N-dimethylethan-1-amine]
81.1 nM	412 nM	502 nM	CCc1c(-c2ccnc(OC)c2)[nH]c2ccc(C3CCN(C4CCN(CC(C)C)CC4)CC3)cc12 [Example 780, 3-ethyl-5-(1′-isobutyl-[1,4′-bipiperidin]-4-yl)-2-(2-methoxypyridin-4-yl)-1H-indole]
316 nM	206 nM	577 nM	COc1cc(-c2[nH]c3ccc(C4CCN(C5CCN(CC(C)C)CC5)CC4)cc3c2C)ccn1 [Example 781, 5-(1′-isobutyl-[1,4′-bipiperidin]-4-yl)-2-(2-methoxypyridin-4-yl)-3-methyl-1H-indole]
